Experimental data: paper PMC10218941, “Design, Synthesis, Antiproliferative Actions, and DFT Studies of New Bis–Pyrazoline Derivatives as Dual EGFR/BRAF^V600E Inhibitors” (International Journal of Molecular Sciences, 2023)
Several values for one entry are separate records, joined by “and”; a condition that tells them apart may be missing. Equal values may be shown once.

Tests used:
caspase-3 = test: Caspase 3 activation assay; format: cell-based, human; conditions: MCF-7 cells; for Caspase–3 Fold Change: versus untreated control
Text: Compounds 12 and 17 were studied for their effects on caspase-3 levels in MCF-7 (breast cancer cell line) and staurosporine as a reference (503.00 ± 4 pg/mL). […] The aforementioned results imply that caspase-3 overexpression may be a contributing factor in the antiproliferative effects of the investigated compounds. […]
4.2.3. Caspase-3 activation assay
Allow all reagents to reach room temperature before use. Gently mix all liquid reagents prior to use. Determine the number of 8-well strips needed for the assay. Insert these in the frame(s) for current use. Add 100 μl of the Standard Diluent Buffer to the zero standard wells. Well(s) reserved for chromogen blank should be left empty. Add 100 μl of standards and controls or diluted samples to the appropriate microtiter wells. The sample dilution chosen should be optimized for each experimental system. Tap gently on side of plate to mix. Cover wells with plate cover and incubate for 2 hours at room temperature. Thoroughly aspirate or decant solution from wells and discard the liquid, Wash wells 4 times. Pipette 100 μl of Caspase-3 (Active) Detection Antibody solution into each well except the chromogen blank(s). Tap gently on the side of the plate to mix. Cover plate with plate cover and incubate for 1 hour at room temperature. Thoroughly aspirate or decant solution from wells and discard the liquid, Wash wells 4 times. Add 100 μl Anti-Rabbit IgG HRP Working Solution to each well except the chromogen blank(s). Prepare the working dilution as described in Preparing IgG HRP. Cover wells with the plate cover and incubate for 30 minutes at room temperature. Thoroughly aspirate or decant solution from wells and discard the liquid. Wash wells 4 times. Add 100 μl of Stabilized Chromogen to each well. The liquid in the wells will begin to turn blue. Incubate for 30 minutes at room temperature and in the dark. The incubation time for chromogen substrate is often determined by the microtiter plate reader used. Many plate readers have the capacity to record a maximum optical density (O.D.) of 2.0. The O.D. values should be monitored, and the substrate reaction stopped before the O.D. of the positive wells exceeds the limits of the instrument. The O.D. values at 450 nm can only be read after the Stop Solution has been added to each well. If using a reader that records only to 2.0 O.D., stopping the assay after […]
Add 100 μl of Stop Solution to each well. Tap side of plate gently to mix. The solution in the wells should change from blue to yellow. Read the absorbance of each well at 450 nm having blanked the plate reader against a chromogen blank composed of 100 μl each of Stabilized Chromogen and Stop Solution. Read the plate within 2 hours after adding the Stop Solution. Use a curve fitting software to generate the standard curve. A four-parameter algorithm provides the best standard curve fit. Read the concentrations for unknown samples and controls from the standard curve. Multiply value(s) obtained for sample(s) by the appropriate dilution factor to correct for the dilution in step 3. Samples producing signals greater than that of the highest standard should be diluted in Standard Diluent Buffer and reanalyzed. […]

[1] = test system: A-549 (lung cancer cell line); test: Antiproliferative assay (MTT), A-549; format: cell-based; conditions: Homo sapiens, A549; read-out: Antiproliferative Activity IC50 ± SEM (µM) A-549
Experimental: The antiproliferative activity of pyrazoline hybrids 8–17 was tested against the four human cancer cell lines Panc-1 (pancreatic cancer cell line), MCF-7 (breast cancer cell line), HT-29 (colon cancer cell line), and A-549 (lung cancer cell line) using the MTT assay and doxorubicin as the reference drug. See Appendix SA (Supplementary File).
4.2. Biological evaluation
4.2.1. Cytotoxic activity using MTT Assay and evaluation of IC50 […]
96-well flat-bottomed cell culture plates were used to seed the cells at a […]
of 10^4 cells mL-1. The medium was aspirated from all the wells of culture plates after 24 h followed by the addition of synthesized compounds (in 200 μL medium to yield a final concentration of 0.1% (v/v) dimethyl sulfoxide) into individual wells of the plates. Four wells were designated to a single compound. The plates were allowed to incubate at 37°C for 96 h. Afterwards, the medium was aspirated and 3 -[4,5-dimethylthiazol-2-yl]-2,5-diphenyltetrazolium bromide (MTT) (0.4 mg/mL) in medium was added to each well and subsequent ly incubated for 3 h. The medium was aspirated and 150 μL dimethyl sulfoxide (DMSO) was added to each well. The plates were vortexed followed by the measurement of absorbance at 540 nm on a microplate reader. The results were presented as inhibition (%) of proliferation in contrast to controls comprising 0.1% 4.2.1.2. Assay for antiproliferative effect
To explore the antiproliferative potential of compounds propidium iodide fluorescence assay was performed using different cell lines such as Panc -1 (pancreas cancer cell line), MCF-7 (breast cancer cell line), HT-29 (colon cancer cell line) and A-549 (epithelial cancer cell line), respectively. To calculate the total nuclear DNA, a fluorescent dye (propidium iodide, PI) is used which can attach to the DNA, thus offering a quick and precise technique. PI cannot pass through the cell membrane and its signal intensity can be considered as directly proportional to quantity of cellular DNA. Cells whose cell membranes are damaged or have changed permeability are counted as dead ones. The assay was performed by seeding the cells of different cell lines at a density of 3000-7500 cells/well (in200μl medium) in culture plates followed by incubation for 24h at 37 °C in humidified 5%CO2/95% air atmospheric conditions. The medium was removed; the compounds were added to the plates at 10 μM concentrations (in 0.1% DMSO) in triplicates, followed by incubation for 48h. DMSO (0.1%) was used as control. After incubation, medium was removed followed by the addition of PI (25 μl, 50μg/mL in water/medium) to each well of the plates. At - 80 °C, the plates were allowed to freeze for 24 h, followed by thawing at 25 °C. A fluorometer (Polar-Star BMG Tech) was used to record the readings at excitation and emission wavelengths of 530 and 620 nm for each well. The percentage cytotoxicity of compounds was calculated using […]
Where ATC= Absorbance of treated cells and AC= Absorbance of control. Erlotinib was used as positive control in the assay. […]

EGFR = target: T1, EGFR (Homo sapiens, UniProt P00533); test: EGFR inhibitory assay; format: biochemical; conditions: read-out: EGFR Inhibition IC50 ± SEM
T1 construct: 645–1186); His6 (N); made in house; host or cells: Sf-9 insect cells (baculovirus; pBlueBacHis2B / pFASTBacHTc
Experimental: 4.2.2. EGFR inhibitory assay
Baculoviral expression vectors including pBlueBacHis2B and pFASTBacHTc were used […]
(1 picture or pasted object on this page, not shown here)
5ʹ upstream to the EGFR sequence comprised a sequence that encoded (His)6. Sf-9 cells were infected for 72h for protein expression. The pellets of Sf-9 cells were solubilized in a buffer containing sodium vanadate (100 μM), aprotinin (10 μg/mL), triton (1%), HEPES […]
centrifugation for 20 min.
Histidine-linked proteins were first eluted with 250 and then […]
enhancement solution was added to each well and the signal was recorded at excitation and […]
The autophosphorylation percentage inhibition by compounds was calculated using the following equation: […]

BRAF^V600E = BRAF^V600E inhibitory assay
Sequence of BRAF^V600E (P28028 whole entry V585E): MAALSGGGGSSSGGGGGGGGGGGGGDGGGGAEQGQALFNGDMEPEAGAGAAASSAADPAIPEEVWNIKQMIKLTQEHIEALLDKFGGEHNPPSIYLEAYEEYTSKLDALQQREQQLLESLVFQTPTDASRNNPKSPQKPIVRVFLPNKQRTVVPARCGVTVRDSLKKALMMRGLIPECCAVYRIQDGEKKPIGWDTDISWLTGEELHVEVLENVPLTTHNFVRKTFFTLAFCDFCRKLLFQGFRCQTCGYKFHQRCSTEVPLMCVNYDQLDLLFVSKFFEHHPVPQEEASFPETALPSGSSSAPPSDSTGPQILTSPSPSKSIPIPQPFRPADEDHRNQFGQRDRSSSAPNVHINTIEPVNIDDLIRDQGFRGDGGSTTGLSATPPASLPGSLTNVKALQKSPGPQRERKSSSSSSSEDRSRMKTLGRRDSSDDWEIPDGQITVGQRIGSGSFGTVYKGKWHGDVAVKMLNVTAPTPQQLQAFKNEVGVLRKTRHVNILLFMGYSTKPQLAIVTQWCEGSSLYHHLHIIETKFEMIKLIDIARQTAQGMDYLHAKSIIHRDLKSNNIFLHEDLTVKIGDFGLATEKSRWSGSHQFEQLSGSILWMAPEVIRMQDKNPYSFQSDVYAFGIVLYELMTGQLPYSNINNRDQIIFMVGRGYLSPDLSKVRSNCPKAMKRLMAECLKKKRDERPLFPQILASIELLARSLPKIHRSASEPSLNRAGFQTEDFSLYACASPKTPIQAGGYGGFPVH
Experimental: V600E mutant BRAF kinase assay was performed to investigate the activity of tested compounds against BRAF. Mouse full-length GST-tagged BRAFV600E (7.5 ng, Invitrogen, PV3849) was pre-incubated with drug (1 µL) and assay dilution buffer (4 µL) for 60 min at 25 °C. In assay dilution buffer, a solution (5 µL) containing MgCl2 (30 mM), ATP (200 µM), recombinant human full length (200 ng) and N-terminal His-tagged MEK1 (Invitrogen) was added to start the assay, subsequent to incubation for 25 min at 25 °C. The assay was stopped using 5X protein denaturing buffer (LDS) solution (5 µL). To further denature the protein, heat (70° C) was applied for 5 min.
10 µL of each reaction was loaded into the precast plates and electrophoresis was allowed to proceed. After completion of electrophoresis, the front part of the precast gel plate (holding hot ATP) was cut and afterwards cast-off. The dried gel was developed using a phosphor screen.
served as positive control.

T1 sequence (P00533 669-1210): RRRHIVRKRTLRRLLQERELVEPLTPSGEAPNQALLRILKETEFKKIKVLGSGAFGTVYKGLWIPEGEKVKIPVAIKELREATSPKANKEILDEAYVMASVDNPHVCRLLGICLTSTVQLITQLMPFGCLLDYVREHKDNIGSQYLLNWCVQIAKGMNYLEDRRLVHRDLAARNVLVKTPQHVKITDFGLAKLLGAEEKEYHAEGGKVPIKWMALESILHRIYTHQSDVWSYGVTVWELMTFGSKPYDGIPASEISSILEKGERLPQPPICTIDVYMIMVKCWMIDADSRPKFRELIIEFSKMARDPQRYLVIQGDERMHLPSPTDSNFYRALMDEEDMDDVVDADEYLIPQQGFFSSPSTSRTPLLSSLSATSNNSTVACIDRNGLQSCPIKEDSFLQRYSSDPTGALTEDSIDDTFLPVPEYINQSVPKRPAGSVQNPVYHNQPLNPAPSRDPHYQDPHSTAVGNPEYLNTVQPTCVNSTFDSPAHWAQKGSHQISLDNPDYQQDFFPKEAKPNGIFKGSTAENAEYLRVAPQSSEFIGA

IC50 [1] [µM]	IC50 (EGFR) [nM]	IC50 (BRAF^V600E) [nM]	Compound	Caspase–3 Conc (caspase-3)	Caspase–3 Fold Change (caspase-3)
1 ± 0.1	81 ± 5	93 ± 6	COc1ccc(C2CC(c3ccc(OCC(=O)Nc4ccc(C5=NNC(c6ccc(OC)c(OC)c6)C5)cc4)cc3)=NN2)cc1 (stereo not drawn) [Compound 12, 2-(4-(5-(4-Methoxyphenyl)-4,5-dihydro-1H-pyrazol-3-yl)phenoxy)-N-(4-(5-(3,4-dimethoxyphenyl)-4,5-dihydro-1H-pyrazol-3-yl)phenyl)acetamide]	543.50 ± 4 pg/mL	8.5
1.2 ± 0.1	87 ± 6	107 ± 9	COc1ccc(C2CC(c3ccc(NC(=O)COc4ccc(C5=NNC(c6ccc(OC)c(OC)c6)C5)cc4)cc3)=NN2)cc1 (stereo not drawn) [Compound 17, 2-(4-(5-(3,4-Dimethoxyphenyl)-4,5-dihydro-1H-pyrazol-3-yl)phenoxy)-N-(4-(5-(4-methoxyphenyl)-4,5-dihydro-1H-pyrazol-3-yl)phenyl)acetamide]	469.50 ± 5 pg/mL and 469.50 ± 4 pg/mL	7.2
			CN[C@@H]1C[C@H]2O[C@@](C)([C@@H]1OC)n1c3ccccc3c3c4c(c5c6ccccc6n2c5c31)C(=O)NC4 [Staurosporine, reference compound]	503.00 ± 4 pg/mL	8.0
